Assay results from the CombiSolv-Exp solvation set (Vermeire and Green 2021).
Values belong to the compound of their own block, whether it stands above or below them.

Test: solvent given as SMILES
[1] = in CCCCCCCCC=CCCCCCCCC(=O)OCC(COC(=O)CCCCCCCC=CCCCCCCCC)OC(=O)CCCCCCCC=CCCCCCCCC

Compound: Oc1ccc(Cl)cc1Cl
solvation free energy, 298 K (in CCCCCC): -6.8 kcal/mol
solvation free energy, 298 K (in CCCCCCC): -6.85 kcal/mol
solvation free energy, 298 K (in CCCCCCCC): -6.82 kcal/mol
solvation free energy, 298 K [1]: -7.49 kcal/mol
solvation free energy, 298 K (in CCCCCCCCCC): -6.79 kcal/mol
solvation free energy, 298 K (in Cc1ccc(C)cc1): -7.58 kcal/mol
solvation free energy, 298 K (in Cc1cccc(C)c1): -7.56 kcal/mol
solvation free energy, 298 K (in Cc1ccccc1C): -7.64 kcal/mol
solvation free energy, 298 K (in O): -4.98 kcal/mol

Compound: Clc1cc2c(cc1Cl)Oc1cc(Cl)c(Cl)cc1O2
solvation free energy, 298 K (in O): -3.37 kcal/mol

Compound: NC(=O)c1ccccc1O
solvation free energy, 298 K (in C1CCOC1): -13.2 kcal/mol
solvation free energy, 298 K (in C1COCCO1): -13 kcal/mol
solvation free energy, 298 K (in CC(C)(C)O): -12.1 kcal/mol
solvation free energy, 298 K (in CC(C)=O): -13 kcal/mol
solvation free energy, 298 K (in CC(C)CCO): -11.9 kcal/mol
solvation free energy, 298 K (in CC(C)CO): -11.9 kcal/mol
solvation free energy, 298 K (in CC(C)O): -12.2 kcal/mol
solvation free energy, 298 K (in CC(C)OCCO): -12.8 kcal/mol
solvation free energy, 298 K (in CC(O)COC(C)(C)C): -12.6 kcal/mol
solvation free energy, 298 K (in CCC(C)O): -12.2 kcal/mol
solvation free energy, 298 K (in CCCC(C)O): -12.1 kcal/mol
solvation free energy, 298 K (in CCCCCCCCCCO): -11.6 kcal/mol
solvation free energy, 298 K (in CCCCCCCCO): -11.7 kcal/mol
solvation free energy, 298 K (in CCCCCCCO): -11.8 kcal/mol
solvation free energy, 298 K (in CCCCCCO): -12 kcal/mol
solvation free energy, 298 K (in CCCCCO): -12 kcal/mol
solvation free energy, 298 K (in CCCCO): -12.1 kcal/mol
solvation free energy, 298 K (in CCCCOC(C)=O): -12.3 kcal/mol
solvation free energy, 298 K (in CCCCOCCCC): -10.5 kcal/mol
solvation free energy, 298 K (in CCCCOCCO): -12.6 kcal/mol
solvation free energy, 298 K (in CCCO): -12.3 kcal/mol
solvation free energy, 298 K (in CCCOC(C)=O): -12.4 kcal/mol
solvation free energy, 298 K (in CCCOCCO): -12.8 kcal/mol
solvation free energy, 298 K (in CCO): -12.5 kcal/mol
solvation free energy, 298 K (in CCOC(C)=O): -12.6 kcal/mol
solvation free energy, 298 K (in CCOCCO): -13 kcal/mol
solvation free energy, 298 K (in CO): -12.7 kcal/mol
solvation free energy, 298 K (in COC(C)=O): -12.8 kcal/mol
solvation free energy, 298 K (in COC(C)CCO): -12.7 kcal/mol
solvation free energy, 298 K (in Fc1ccccc1): -10.6 kcal/mol
solvation free energy, 298 K (in O): -10.4 kcal/mol

Compound: O=[N+]([O-])c1c(Cl)c(Cl)c(Cl)c(Cl)c1Cl
solvation free energy, 298 K [1]: -10.5 kcal/mol

Compound: ClC(Cl)(Cl)C(Cl)(Cl)Cl
solvation free energy, 298 K [1]: -5.42 kcal/mol
solvation free energy, 298 K (in CCCCCCCCO): -6.1 kcal/mol

Compound: Cc1cccc2ccccc12
solvation free energy, 298 K (in CCO): -7.47 kcal/mol
solvation free energy, 298 K (in O): -2.32 kcal/mol
solvation free energy, 298 K (in OCCOCCO): -7.33 kcal/mol

Compound: CCCCC1CCCCC1
solvation free energy, 298 K (in CCC(C)=O): -5.97 kcal/mol
solvation free energy, 298 K (in CCO): -5.65 kcal/mol
solvation free energy, 298 K (in CN1CCCC1=O): -5.09 kcal/mol
solvation free energy, 298 K (in O): 1.96 kcal/mol
solvation free energy, 298 K (in O=Cc1ccco1): -4.97 kcal/mol
solvation free energy, 298 K (in OCCO): -2.38 kcal/mol
solvation free energy, 298 K (in OCCOCCO): -3.78 kcal/mol

Compound: CCCCC#N
solvation free energy, 298 K (in CCCCCC): -4.45 kcal/mol
solvation free energy, 298 K (in CCCCCCCCCCCCCCCC): -4.01 kcal/mol
solvation free energy, 298 K (in CCCCCCCCO): -4.89 kcal/mol
solvation free energy, 298 K (in O): -3.49 kcal/mol
solvation free energy, 298 K (in [2H]O[2H]): -3.42 kcal/mol

Compound: c1ccncc1
solvation free energy, 298 K (in C1COCCO1): -5.69 kcal/mol
solvation free energy, 298 K (in CC(=O)N(C)C): -5.76 kcal/mol
solvation free energy, 298 K (in CC(C)(C)O): -5.4 kcal/mol
solvation free energy, 298 K (in CC(C)=O): -5.42 kcal/mol
solvation free energy, 298 K (in CC(C)CC(C)(C)C): -4.03 kcal/mol
solvation free energy, 298 K (in CC(C)CO): -5.67 kcal/mol
solvation free energy, 298 K (in CC(C)O): -5.27 kcal/mol
solvation free energy, 298 K (in CCC(C)=O): -5.37 kcal/mol
solvation free energy, 298 K (in CCC(C)O): -5.63 kcal/mol
solvation free energy, 298 K (in CCCCCC): -4.19 kcal/mol
solvation free energy, 298 K (in CCCCCCCCCCCCCCCC): -4.04 kcal/mol
solvation free energy, 298 K (in CCCCCCCCO): -5.32 kcal/mol
solvation free energy, 298 K (in CCCCN(C=O)CCCC): -5.32 kcal/mol
solvation free energy, 298 K (in CCCCO): -5.39 kcal/mol
solvation free energy, 298 K (in CCCO): -5.44 kcal/mol
solvation free energy, 298 K (in CCO): -5.7 kcal/mol
solvation free energy, 298 K (in CNC(C)=O): -5.35 kcal/mol
solvation free energy, 298 K (in O): -4.69 kcal/mol
solvation free energy, 298 K (in [2H]O[2H]): -4.52 kcal/mol

Compound: CCCCCCCCCCCCCCCC
solvation free energy, 298 K (in CCO): -8.9 kcal/mol
solvation free energy, 298 K (in ClC(Cl)(Cl)Cl): -11.4 kcal/mol
solvation free energy, 298 K (in ClCCCl): -9.66 kcal/mol
solvation free energy, 298 K (in O=Cc1ccco1): -7.93 kcal/mol
solvation free energy, 298 K (in OCCOCCO): -5.77 kcal/mol

Compound: CCc1cccc2ccccc12
solvation free energy, 298 K (in O): -2.3 kcal/mol

Compound: CCCCCCCCCCCOC(=O)c1ccccc1C(=O)OCCCCCCCCCCC
solvation free energy, 298 K (in O): -6.08 kcal/mol

Compound: COS(=O)(=O)OC
solvation free energy, 298 K (in O): -5.1 kcal/mol

Compound: C=C(Cl)Cl
solvation free energy, 298 K (in CCO): -3.25 kcal/mol
solvation free energy, 298 K (in CO): -2.95 kcal/mol
solvation free energy, 298 K (in O): 0.22 kcal/mol

The remaining lines, values ahead:

solvation free energy, 298 K (in CC(C)CO): -11.2 kcal/mol
solvation free energy, 298 K (in CC(C)O): -11.3 kcal/mol
solvation free energy, 298 K (in CCC(C)O): -11.2 kcal/mol
solvation free energy, 298 K (in CCCCO): -11.4 kcal/mol
solvation free energy, 298 K (in CCCO): -11.5 kcal/mol
solvation free energy, 298 K (in CCO): -11.6 kcal/mol
solvation free energy, 298 K (in CO): -11.8 kcal/mol
Compound: O=C(Oc1ccccc1)Oc1ccccc1

solvation free energy, 298 K (in O): -4.59 kcal/mol
Compound: CCc1cccnc1

solvation free energy, 298 K (in O): -0.52 kcal/mol
Compound: CC1=CC2C(CCC(C)=CCC1)C2(C)C (stereo unspecified)

solvation free energy, 298 K (in O): -3.96 kcal/mol
Compound: CC(=O)OCC=C(C)CCC=C(C)CCC=C(C)C

solvation free energy, 298 K (in CCCCCCCCCCCCCCCC): -6.4 kcal/mol
solvation free energy, 298 K (in CCCCCCCCO): -6.46 kcal/mol
Compound: CCCCCOCCCCC

solvation free energy, 298 K (in O): -9.4 kcal/mol
Compound: O=C(O)c1cc(-c2ccc(F)cc2F)ccc1O

solvation free energy, 298 K (in O): -6.08 kcal/mol
Compound: C=C(C)C(=O)O

solvation free energy, 298 K (in O): -11.6 kcal/mol
Compound: O=C(c1ccc(Br)cc1)N(O)c1ccc(Cl)cc1

solvation free energy, 298 K (in CCCCCCC): -6.22 kcal/mol
Compound: CCCCCCCN

solvation free energy, 298 K (in O): -0.7 kcal/mol
Compound: CC(C)S

solvation free energy, 298 K (in C=CCCCCCCCCCCCCCC): -3.87 kcal/mol
solvation free energy, 298 K (in O): 1.77 kcal/mol
Compound: C=CCCC(C)C

solvation free energy, 298 K (in O): -7.62 kcal/mol
Compound: CC(=O)c1ccncc1

solvation free energy, 298 K (in O): 0.26 kcal/mol
Compound: C=C1C=CC(C(C)C)CC1 (stereo unspecified)

solvation free energy, 298 K (in O): -0.26 kcal/mol
Compound: CC1=CC2C(=CC1)C(C)CCC2C(C)C (stereo unspecified)
